The values that follow come from patent publication US8361998B2, “Compounds and their use as IKACh blockers” (AstraZeneca AB, priority 2010, dated 2013).

The structures appear in SMILES notation.

The target in this test is T1, human cardiac ion channel proteins hKir3.1/Kir3.4 (Homo sapiens, UniProt P48544+P48549).
T1 construct: expressed in transfected cells
T1 sequence (P48549 1-501): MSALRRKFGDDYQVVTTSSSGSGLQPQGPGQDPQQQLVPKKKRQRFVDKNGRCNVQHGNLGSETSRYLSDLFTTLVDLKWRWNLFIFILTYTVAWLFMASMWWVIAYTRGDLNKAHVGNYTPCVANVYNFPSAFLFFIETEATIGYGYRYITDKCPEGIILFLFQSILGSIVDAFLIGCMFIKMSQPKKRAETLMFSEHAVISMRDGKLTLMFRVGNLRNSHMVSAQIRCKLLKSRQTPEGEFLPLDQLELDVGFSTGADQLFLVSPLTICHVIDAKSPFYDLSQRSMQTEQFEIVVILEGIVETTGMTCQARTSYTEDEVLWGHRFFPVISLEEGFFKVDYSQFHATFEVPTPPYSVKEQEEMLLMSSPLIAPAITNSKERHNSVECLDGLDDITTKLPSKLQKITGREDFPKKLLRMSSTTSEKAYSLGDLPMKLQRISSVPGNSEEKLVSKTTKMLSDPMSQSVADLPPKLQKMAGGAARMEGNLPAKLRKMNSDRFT
T1 sequence (P48544 1-419): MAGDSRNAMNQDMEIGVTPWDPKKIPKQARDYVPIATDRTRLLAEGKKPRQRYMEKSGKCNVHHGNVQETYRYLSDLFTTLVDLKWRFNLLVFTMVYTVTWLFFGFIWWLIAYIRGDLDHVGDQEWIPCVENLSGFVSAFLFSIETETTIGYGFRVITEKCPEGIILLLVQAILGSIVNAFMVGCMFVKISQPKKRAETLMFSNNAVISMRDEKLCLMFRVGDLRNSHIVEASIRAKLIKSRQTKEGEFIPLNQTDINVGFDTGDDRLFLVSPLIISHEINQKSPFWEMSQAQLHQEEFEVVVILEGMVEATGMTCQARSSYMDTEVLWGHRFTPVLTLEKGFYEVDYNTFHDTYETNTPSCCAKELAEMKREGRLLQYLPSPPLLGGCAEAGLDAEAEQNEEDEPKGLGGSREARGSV
Nature of the test: Atomic Absorption Screening (AAS) Rb efflux assay of hKir3.1/Kir3.4 block, carbachol/high K+ stimulated, 10-pt or 7-pt CR. In kind it is cell-based. Conditions: 10-pt CR (0.003 to 67 μmol/L), AAS Rb efflux, CHO-K1 cells expressing hKir3.1/Kir3.4; mean of >4 replicates; read-out: IKACh IC50 10-pt CR, AAS. An outline of the steps:
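Mean IC50s derive from >4 replicates over 0.003–67 μmol/L (10-point) or >3 replicates over 0.037–27 μmol/L (7-point), both threefold steps. Rb-loaded (3 h, 37° C) CHO-K1 cells stably expressing hKir3.1/Kir3.4 saw compound for 5 min at RT before 10-min channel opening by carbachol 10 μM/KCl 20 mM final. Released Rb was quantified by atomic absorption.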

As usually defined, the IC50 is the point on the concentration scale where inhibition reaches its midpoint. `CO[C@H](C)[C@@H](CN1CCCC1)N(C)C(=O)c1ccc(Br)cc1` [Example 3.4, 4-Bromo-N-((2R,3R)-3-methoxy-1-(pyrrolidin-1-yl)butan-2-yl)-N-methylbenzamide]: the IC50 amounted to 2.2 µM.

As to `CO[C@H](C)[C@@H](CN1CCCC1)N(C)C(=O)c1ccc(Cl)cc1` [Example 3.5, 4-Chloro-N-((2R,3R)-3-methoxy-1-(pyrrolidin-1-yl)butan-2-yl)-N-methylbenzamide], the IC50 was 7.2 µM.

As for `COC1CCN(C[C@H](C(C)C)N(C)C(=O)c2ccc(Br)cc2)CC1` [Example 3.6, (S)-4-Bromo-N-(1-(4-methoxypiperidin-1-yl)-3-methylbutan-2-yl)-N-methylbenzamide], the IC50 was 3.2 µM.

Turning to `COC1CCN(C[C@H](C(C)C)N(C)C(=O)c2ccc(Cl)cc2)CC1` [Example 3.7, (S)-4-Chloro-N-(1-(4-methoxypiperidin-1-yl)-3-methylbutan-2-yl)-N-methylbenzamide], the IC50 came out at 1.3 µM.

For `COC1CCN(C[C@H](C(C)C)N(C)C(=O)c2ccc(F)c(C)c2)CC1` [Example 3.8, (S)-4-Fluoro-N-(1-(4-methoxypiperidin-1-yl)-3-methylbutan-2-yl)-N,3-dimethylbenzamide], the 50% inhibitory concentration (IC50) stood at 4.8 µM.

For `COC1CCN(C[C@H](C(C)C)N(C)C(=O)c2ccc(F)c(Cl)c2)CC1` [Example 3.9, (S)-3-Chloro-4-fluoro-N-(1-(4-methoxypiperidin-1-yl)-3-methylbutan-2-yl)-N-methylbenzamide], the IC50 was found to be 3 µM.

In the case of `COC1CCN(C[C@H](C(C)C)N(C)C(=O)c2cccc(C)c2)CC1` [Example 3.10, (S)-N-(1-(4-Methoxypiperidin-1-yl)-3-methylbutan-2-yl)-N,3-dimethylbenzamide], the IC50 is 14 µM.

Regarding `COc1cc(C(=O)N(C)[C@H](CN2CCC(OC)CC2)C(C)C)ccc1C` [Example 3.11, (S)-3-Methoxy-N-(1-(4-methoxypiperidin-1-yl)-3-methylbutan-2-yl)-N,4-dimethylbenzamide], the IC50 was 7.2 µM.

Regarding `COC1CCN(C[C@H](C(C)C)N(C)C(=O)c2ccc(C)c(C)c2)CC1` [Example 3.12, (S)-N-(1-(4-Methoxypiperidin-1-yl)-3-methylbutan-2-yl)-N,3,4-trimethylbenzamide], the IC50 is 2.5 µM.

For `Cc1cc(C(=O)N(C)[C@H](CN2CCCC2)C2CC2)ccc1F` [Example 3.13, (S)-N-(1-Cyclopropyl-2-(pyrrolidin-1-yl)ethyl)-4-fluoro-N,3-di-methylbenzamide], the IC50 worked out at 3.6 µM.

Turning to `CN(C(=O)c1ccc(Cl)cc1)[C@H](CN1CCCC1)C1CC1` [Example 3.14, (S)-4-Chloro-N-(1-cyclopropyl-2-(pyrrolidin-1-yl)ethyl)-N-methylbenzamide], the IC50 came out at 5.7 µM.

For `CN(C(=O)c1ccc(Br)cc1)[C@H](CN1CCCC1)C1CC1` [Example 3.15, (S)-4-Bromo-N-(1-cyclopropyl-2-(pyrrolidin-1-yl)ethyl)-N-methylbenzamide], the IC50 was 3.8 µM.

For the compound `CN(C(=O)c1ccc(F)c(F)c1)[C@H](CN1CCCC1)C1CC1` [Example 3.16, (S)-N-(1-Cyclopropyl-2-(pyrrolidin-1-yl)ethyl)-3,4-difluoro-N-methylbenzamide], the 50% inhibitory concentration (IC50) stood at 13 µM.

`Cc1cccc(C(=O)N(C)[C@H](CN2CCCC2)C2CC2)c1` [Example 3.17, (S)-N-(1-Cyclopropyl-2-(pyrrolidin-1-yl)ethyl)-N,3-dimethyl-benzamide]: the IC50 worked out at 9.3 µM.

With `COC[C@@H]1CCCN1C[C@H](C(C)C)N(C)C(=O)c1ccc(OC)cc1` [Example 3.18, 4-Methoxy-N-((S)-1-((S)-2-(methoxymethyl)pyrrolidin-1-yl)-3-methylbutan-2-yl)-N-methylbenzamide], the IC50 came to 1.9 µM.

`COC[C@@H]1CCCN1C[C@H](C(C)C)N(C)C(=O)c1ccc(Cl)cc1` [Example 3.19, 4-Chloro-N-((S)-1-((S)-2-(methoxymethyl)pyrrolidin-1-yl)-3-methylbutan-2-yl)-N-methylbenzamide]: the IC50 stood at 6 µM.
